“And” between values parts separate entries of the source, which are not always exact repeats. Equal entries are not always repeated.
Assays:
recombinant PKR1 = recombinant PKR1 (Homo sapiens (Human), UniProt Q8TCW9); experiment: Aequorin-based luminescent Ca2+ mobilization assay, antagonist mode, PKR1; format: cell-based; conditions: CHO cells stably expressing aequorin and recombinant PKR1; challenge with recombinant PK2; Ki converted from IC50 by IC50/(1+[PK2]/EC50PK2)
Protocol: (§1) An aequorin-based luminescent assay for calcium mobilization was used to measure mobilization of intracellular Ca^2+ (Bullock et al., Mol Pharmacol 65, 582-588, 2004). Chinese hamster ovary (CHO) cells stably expressing photoprotein aequorin and recombinant PKR1 or PKR2 were tested by this method. Briefly, the cells were charged in Opti-MEM™ (Invitrogen) containing 8 μM of coelenterazine cp at 37° C. for 2 hours. Cells were detached by brief trypsinization and maintained in Hank's Balanced Salt Solution (HBSS) plus 10 mM HEPES (pH7.5) and 0.1% BSA at about 5×10^5 cells/ml. Luminescence measurements were made using a Berthold luminometer.
(§2) All compounds were diluted in HBSS plus 10 mM HEPES (pH7.5) and 0.1% BSA. To test the agonist activity, 100 μl of cells were injected into the tubes with 20 μl of compounds. For antagonist assays, 80 μl cells were incubated in the tubes with 20 μl different concentrations of antagonists at room temperature for 20 minutes, and then 100 μl of recombinant PK2 were injected. The IC50 obtained from the assays were then converted to Ki values using the formula: IC50/(1+[PK2]/EC50PK2).

recombinant PKR2 = recombinant PKR2 (Homo sapiens (Human), UniProt Q8NFJ6); experiment: Aequorin-based luminescent Ca2+ mobilization assay, antagonist mode, PKR2; format: cell-based; conditions: CHO cells stably expressing aequorin and recombinant PKR2; challenge with recombinant PK2; Ki converted from IC50 by IC50/(1+[PK2]/EC50PK2)
Protocol: as §1, §2

mice [1] = experiment: Locomotor activity in mice after PK2 antagonist; format: in vivo
mice [2] = experiment: Arousal level (EEG/EMG wake time) in mice after PK2 antagonist; format: in vivo
monkeys = experiment: Sleep time in monkeys (wireless sleep tracker) after PK2 antagonist; format: in vivo, Macaca fascicularis

Sequence of recombinant PKR2 (Q8NFJ6 whole entry): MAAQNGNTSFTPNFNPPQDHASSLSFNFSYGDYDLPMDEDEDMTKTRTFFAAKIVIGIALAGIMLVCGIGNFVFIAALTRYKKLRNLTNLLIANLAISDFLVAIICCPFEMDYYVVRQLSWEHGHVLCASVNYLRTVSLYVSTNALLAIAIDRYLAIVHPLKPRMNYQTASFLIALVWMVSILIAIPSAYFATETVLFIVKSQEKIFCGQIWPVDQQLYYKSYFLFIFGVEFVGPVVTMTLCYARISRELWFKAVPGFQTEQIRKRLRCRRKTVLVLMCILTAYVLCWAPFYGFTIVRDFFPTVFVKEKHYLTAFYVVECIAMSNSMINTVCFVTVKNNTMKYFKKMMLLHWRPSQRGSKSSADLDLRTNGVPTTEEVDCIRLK
Sequence of recombinant PKR1 (Q8TCW9 whole entry): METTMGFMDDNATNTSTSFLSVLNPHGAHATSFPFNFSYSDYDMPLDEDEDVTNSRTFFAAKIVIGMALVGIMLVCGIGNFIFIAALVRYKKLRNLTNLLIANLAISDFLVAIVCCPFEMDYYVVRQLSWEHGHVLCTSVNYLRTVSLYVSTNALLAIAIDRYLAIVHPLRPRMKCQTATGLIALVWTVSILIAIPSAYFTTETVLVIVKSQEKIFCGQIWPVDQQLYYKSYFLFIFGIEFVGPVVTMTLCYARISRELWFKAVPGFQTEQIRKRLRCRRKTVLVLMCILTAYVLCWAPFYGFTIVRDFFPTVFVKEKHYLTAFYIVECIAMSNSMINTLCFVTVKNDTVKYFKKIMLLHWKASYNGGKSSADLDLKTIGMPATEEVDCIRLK

Compound | Ki (recombinant PKR1) | further results
COc1cc(CN2CCO[C@@H](C(=O)N(Cc3cc(Cl)c4c(c3)OCCCO4)CC(C)C)C2)ccc1F [(−)-(2R)-1-(4-Fluoro-3-methoxybenzyl)-N-(9-chloro-3,4-dihydro-2H-1,5-benzodioxepin-7-ylmethyl)-N-isobutylmorpholine-2-carboxamide] | 2.6 nM and 5.4 nM | Ki (recombinant PKR2): 1.9 nM
CC(C)CN(Cc1cc(Cl)c2c(c1)OCCCO2)C(=O)[C@@H]1CCN(Cc2cccc3nc[nH]c23)C1 [(−)-(3R)-1-(benzimidazol-4-ylmethyl)-N-(9-chloro-3,4-dihydro-2H-1,5-benzodioxepin-7-ylmethyl)-N-isobutylpyrrolidine-3-carboxamide] | 2.6 nM | Ki (recombinant PKR2): 1.7 nM
COc1ccc(F)cc1CN1CC[C@@H](C(=O)N(Cc2cc(Cl)c3c(c2)OCCCO3)CC(C)C)C1 [(−)-(3R)-1-(5-Fluoro-2-methoxybenzyl)-N-(9-chloro-3,4-dihydro-2H-1,5-benzodioxepin-7-ylmethyl)-N-isobutylpyrrolidine-3-carboxamide] | 9.3 nM and 6.9 nM | 
COc1ccccc1CN1CCO[C@@H](C(=O)N(Cc2cc(Cl)c3c(c2)OCCCO3)CC(C)C)C1 [(−)-(2R)-1-(2-Methoxybenzyl)-N-(9-chloro-3,4-dihydro-2H-1,5-benzodioxepin-7-ylmethyl)-N-isobutylmorpholine-2-carboxamide] | 1.49 nM | 
COc1ccc(F)c(CN2CCO[C@@H](C(=O)N(Cc3cc(Cl)c4c(c3)OCCCO4)CC(C)C)C2)c1 [(−)-(2R)-1-(6-Fluoro-3-methoxybenzyl)-N-(9-chloro-3,4-dihydro-2H-1,5-benzodioxepin-7-ylmethyl)-N-isobutylmorpholine-2-carboxamide] | 10 nM | 
CC(C)CN(Cc1cc(Cl)c2c(c1)OCCCO2)C(=O)[C@@H]1CCN(Cc2cc(F)cc3nc[nH]c23)C1 [(−)-(3R)-1-(5-fluro-benzimidazol-4-ylmethyl)-N-(9-chloro-3,4-dihydro-2H-1,5-benzodioxepin-7-ylmethyl)-N-isobutylpyrrolidine-3-carboxamide] | 71.3 nM | 
CC(C)CN(Cc1cc(Cl)c2c(c1)OCCCO2)C(=O)[C@@H]1CCCN(Cc2cccc3nc[nH]c23)C1 [(−)-(3R)-1-(benzimidazol-4-ylmethyl)-N-(9-chloro-3,4-dihydro-2H-1,5-benzodioxepin-7-ylmethyl)-N-isobutylpiperidine-3-carboxamide] | 97 nM | Ki (recombinant PKR2): 3 nM
COc1cc(CN2CCO[C@@H](C(=O)N(Cc3cc(Cl)c4c(c3)OCCCO4)CC(C)C)C2)c(F)cc1F [(−)-(2R)-1-(4,6-Difluoro-3-methoxybenzyl)-N-(9-chloro-3,4-dihydro-2H-1,5-benzodioxepin-7-ylmethyl)-N-isobutylmorpholine-2-carboxamide] | 4.09 nM | 
COc1c(F)cccc1CN1CC[C@@H](C(=O)N(Cc2cc(Cl)c3c(c2)OCCCO3)CC(C)C)C1 [(−)-(3R)-1-(3-Fluoro-2-methoxybenzyl)-N-(9-chloro-3,4-dihydro-2H-1,5-benzodioxepin-7-ylmethyl)-N-isobutylpyrrolidine-3-carboxamide] | 170 nM | 
COc1cc(F)ccc1CN1CCO[C@@H](C(=O)N(Cc2cc(Cl)c3c(c2)OCCCO3)CC(C)C)C1 [(−)-(2R)-1-(4-Fluoro-2-methoxybenzyl)-N-(9-chloro-3,4-dihydro-2H-1,5-benzodioxepin-7-ylmethyl)-N-isobutylmorpholine-2-carboxamide] | 7.3 nM | 
COc1cc(CN2CC[C@@H](C(=O)N(Cc3cc(Cl)c4c(c3)OCCCO4)CC(C)C)C2)ccc1F [PKRA83, (3R)-1-(4-Fluoro-3-methoxybenzyl)-N-(9-chloro-3,4-dihydro-2H-1,5-benzodioxepin-7-ylmethyl)-N-isobutylpyrrolidine-3-carb oxamide] |  | locomotor activity (mice [1]; mice, 40 mg/kg intraperitoneally at ZT6, vs vehicle (FIG. 6A)): significantly increased; locomotor activity (mice [1]; wild type mice, ocular topic delivery during the late night, vs control (FIG. 13)): increased; wakefulness (wake time) (mice [2]; 40 mg/kg intraperitoneally at ZT6, vs vehicle (FIG. 6B)): significantly increased; wake time (mice [2]; ocular topic application at day time, P<0.05 paired t-test (FIG. 14)): significantly increased; increase of the sleep time (monkeys; 10 mg/kg intramuscularly at ZT10, vs vehicle (FIG. 6C)): > 70 min; sleep time (monkeys; nasal topic application, P<0.05 paired t-test (FIG. 19)): significantly increased; sleep time (monkeys; ocular topic application, P<0.05 paired t-test (FIG. 15)): significantly increased
COc1cccc(CN2CCO[C@@H](C(=O)N(Cc3cc(Cl)c4c(c3)OCCCO4)CC(C)C)C2)c1 [(−)-(2R)-1-(3-Methoxybenzyl)-N-(9-chloro-3,4-dihydro-2H-1,5-benzodioxepin-7-ylmethyl)-N-isobutylmorpholine-2-carboxamide] | 2.5 nM | 
CC(C)CN(Cc1cc(Cl)c2c(c1)OCCCO2)C(=O)[C@@H]1CCN(Cc2ccc(F)c(O)c2)C1 [(−)-(3R)-1-(4-Fluoro-3-hydroxybenzyl)-N-(9-chloro-3,4-dihydro-2H-1,5-benzodioxepin-7-ylmethyl)-N-isobutylpyrrolidine-3-carboxamide] | 107 nM | 
CC(C)CN(Cc1cc(Cl)c2c(c1)OCCCO2)C(=O)[C@H](C)CNCc1cccc2nc[nH]c12 [(−)-(2R)-2-Methyl-3-(benzimidazol-4-ylmethylamino)-N-(9-chloro-3,4-dihydro-2H-1,5-benzodioxepin-7-ylmethyl)-N-isobutylpropanamide] | 3.5 nM and 4.2 nM | 
COc1cc(F)ccc1CN1CC[C@@H](C(=O)N(Cc2cc(Cl)c3c(c2)OCCCO3)CC(C)C)C1 [(−)-(3R)-1-(4-Fluoro-2-methoxybenzyl)-N-(9-chloro-3,4-dihydro-2H-1,5-benzodioxepin-7-ylmethyl)-N-isobutylpyrrolidine-3-carboxamide] | 9.32 nM | 
CC(C)CN(Cc1cc(Cl)c2c(c1)OCCCO2)C(=O)C(C)CNCc1ccc(F)c(O)c1 (racemic) [(±)-2-Methyl-3-((3-hydroxy-4-fluoro)benzylamino)-N-(9-chloro-3,4-dihydro-2H-1,5-benzodioxepin-7-ylmethyl)-N-isobutylpropanamide] | 4.4 nM | 
COc1cc(CN2CCC[C@@H](C(=O)N(Cc3cc(Cl)c4c(c3)OCCCO4)CC(C)C)C2)c(F)cc1F [(−)-(3R)-1-(4,6-Difluoro-3-methoxybenzyl)-N-(9-chloro-3,4-dihydro-2H-1,5-benzodioxepin-7-ylmethyl)-N-isobutylpiperidine-3-carboxamide] | 13.8 nM | 
CC(C)CN(Cc1cc(Cl)c2c(c1)OCCCO2)C(=O)C(C)CNCc1cccc2nc[nH]c12 (racemic) [(±)-2-Methyl-3-(benzimidazol-4-ylmethylamino)-N-(9-chloro-3,4-dihydro-2H-1,5-benzodioxepin-7-ylmethyl)-N-isobutylpropanamide] | 5.6 nM | Ki (recombinant PKR2): 2.1 nM
COc1ccc(F)c(CN2CC[C@@H](C(=O)N(Cc3cc(Cl)c4c(c3)OCCCO4)CC(C)C)C2)c1 [(−)-(3R)-1-(6-Fluoro-3-methoxybenzyl)-N-(9-chloro-3,4-dihydro-2H-1,5-benzodioxepin-7-ylmethyl)-N-isobutylpyrrolidine-3-carboxamide] | 301 nM | 
CC(C)CN(Cc1cc(Cl)c2c(c1)OCCCO2)C(=O)[C@H]1CN(Cc2cc(F)cc3nc[nH]c23)CCO1 [(−)-(2R)-1-(5-fluro-benzimidazol-4-ylmethyl)-N-(9-chloro-3,4-dihydro-2H-1,5-benzodioxepin-7-ylmethyl)-N-isobutylmorpholine-2-carboxamide] | 6.14 nM | 
COc1ccc(F)cc1CN1CCO[C@@H](C(=O)N(Cc2cc(Cl)c3c(c2)OCCCO3)CC(C)C)C1 [(−)-(2R)-1-(5-Fluoro-2-methoxybenzyl)-N-(9-chloro-3,4-dihydro-2H-1,5-benzodioxepin-7-ylmethyl)-N-isobutylmorpholine-2-carboxamide] | 7.3 nM | 
COc1cc(CN2CC[C@@H](C(=O)N(Cc3cc(Cl)c4c(c3)OCCCO4)CC(C)C)C2)c(F)cc1F [(−)-(3R)-1-(4,6-Difluoro-3-methoxybenzyl)-N-(9-chloro-3,4-dihydro-2H-1,5-benzodioxepin-7-ylmethyl)-N-isobutylpyrrolidine-3-carboxamide] | 6.14 nM | 
COc1cc(CNCC(C)C(=O)N(Cc2cc(Cl)c3c(c2)OCCCO3)CC(C)C)c(F)cc1F (racemic) [(±)-2-Methyl-3-((3-methoxy-4,6-difluoro)benzylamino)-N-(9-chloro-3,4-dihydro-2H-1,5-benzodioxepin-7-ylmethyl)-N-isobutylpropanamide] | 43.5 nM | 

Source: US10780095B2, “Compositions and methods for treating disorders of circadian and diurnal rhythms using prokineticin 2 agonists and antagonists” (THE REGENTS OF THE UNIVERSITY OF CALIFORNIA, priority 2016, dated 2020)
